Assay results published in patent US20210283058A1, “METHOD FOR PRODUCING SUSTAINED-RELEASE DRUG, AND SUSTAINED-RELEASE DRUG” (GUNZE LIMITED, priority 2016, published 2021).

Assay: Sustained release evaluated by weight loss curves from TG/DTA
Format: physicochemical
Details: conditions a): 30° C. to 40° C. at 5° C./min, then 40° C. for 30 minutes
Protocol: The sustained release of the sustained-release drug obtained in Example 4 was evaluated by the following method. Weight loss curves were drawn from TG curves obtained using a thermogravimetry/differential thermal analysis (TG/DTA) apparatus (PerkinElmer, STA 6000) under the following conditions: conditions a) the sustained-release drug is heated from 30° C. to 40° C. at 5° C./min, followed by keeping the drug isothermally at 40° C. for 30 minutes; and conditions b) the sustained-release drug is heated from 30° C. to 50° C. at 5° C./min, followed by keeping the drug isothermally at 50° C. for 30 minutes. FIG. 6(a) (conditions a) and FIG. 6(b) (conditions b) show the obtained weight loss curves.

release of medicinal ingredient (weight loss curve): significant volatility
Structure (SMILES): CC(C)[C@@H]1CC[C@@H](C)C[C@H]1O [L-menthol]
